According to PubChem BioAssay AID256 (DTP/NCI, 2004):
Values joined by “and” are separate entries in the source; they are usually repeats but may differ in a detail not shown here. Equal entries are not always repeated. Inconclusive results and toxic doses are left out. Rule for the calls: active = survival T/C of 150% or more; inactive = T/C below 125% in these data.

Test system: CD2F1 mice, L1210 leukemia ip, survival T/C
Experiment: NCI In Vivo Anticancer Drug Screen. Data for tumor model L1210 Leukemia (intraperitoneal) in CD2F1 (CDF1) mice
Details: endpoint: mean survival time, higher = longer survival
Outline: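 Compound-dosed mice with transplantable tumor versus matched vehicle controls; endpoint ratio T/C reported.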

[1] = dose: 100.0 mg/kg/injection, schedule: Q04DX003 (ip), vehicle: saline with Tween-80
[2] = dose: 200.0 mg/kg/injection, schedule: Q04DX003 (ip), vehicle: saline with Tween-80
[3] = dose: 50.0 mg/kg/injection, schedule: Q01DX009 (ip), vehicle: saline
[4] = dose: 400.0 mg/kg/injection, schedule: Q04DX003 (ip), vehicle: saline with Tween-80
[5] = dose: 100.0 mg/kg/injection, schedule: Q01DX001 (ip), vehicle: saline with Tween-80
[6] = dose: 6.25 mg/kg/injection, schedule: Q01DX009 (ip), vehicle: olive oil, sesame oil, peanut oil
[7] = dose: 12.5 mg/kg/injection, schedule: Q01DX009 (ip), vehicle: olive oil, sesame oil, peanut oil
[8] = dose: 25.0 mg/kg/injection, schedule: Q01DX009 (ip), vehicle: olive oil, sesame oil, peanut oil
[9] = dose: 50.0 mg/kg/injection, schedule: Q01DX009 (ip), vehicle: olive oil, sesame oil, peanut oil

Measured: T/C

CCCCN(CCCC)CC(C)(O)c1cc(-c2ccc(Cl)cc2)nc2c(C)cc(C)cc12 (stereo not drawn)
inactive: [1] 87 % of control | [2] 89 % of control

CCC[As](=O)(O)CCC
inactive: dose: 25.0 mg/kg/injection, schedule: Q01DX009 (ip), vehicle: saline 103 % of control | [3] 108 % of control | dose: 100.0 mg/kg/injection, schedule: Q01DX009 (ip), vehicle: saline 98 % of control

NC(N)=N/N=C(/c1ccccc1)c1ccc(F)cc1
inactive: [3] 101 % of control

C=CC1CCCCC1C (stereo not drawn)
inactive: [1] 100 % of control | [2] 100 % of control | [4] 103 % of control

CCCCC(O)(c1ccccc1)C1CN(C(C)(C)C)C1c1ccccc1 (stereo not drawn)
inactive: dose: 25.0 mg/kg/injection, schedule: Q01DX001 (ip), vehicle: saline with Tween-80 95 % of control | dose: 50.0 mg/kg/injection, schedule: Q01DX001 (ip), vehicle: saline with Tween-80 91 % of control | [5] 86 % of control

O=C(Nc1cc(C(F)(F)F)ccc1Cl)c1cccc(Cl)c1
inactive: dose: 100.0 mg/kg/injection, schedule: Q01DX009 (ip), vehicle: saline with Tween-80 95 % of control | [1] 102 % of control | dose: 200.0 mg/kg/injection, schedule: Q01DX009 (ip), vehicle: saline with Tween-80 98 % of control | [2] 93 % of control | dose: 400.0 mg/kg/injection, schedule: Q01DX009 (ip), vehicle: saline with Tween-80 98 % of control | [4] 94 % of control

N/C(CCSc1ccccc1N=Cc1ccccc1O)=N/O
inactive: dose: 3.13 mg/kg/injection, schedule: Q01DX009 (ip), vehicle: olive oil, sesame oil, peanut oil 95 % of control | [6] 94 % of control | [7] 98 % of control | [8] 100 % of control | [9] 100 % of control

COC(=O)C1C2CCC(C2)C1C(=O)OC (stereo not drawn)
inactive: [1] 97 % of control | [2] 101 % of control | [4] 93 % of control

O=CN/N=C/c1ccc2c(c1)CCC2
inactive: [1] 107 % of control | [2] 96 % of control | [4] 96 % of control

O=C(N/N=C/c1ccc(O)cc1O)c1cccnc1
inactive: [6] 102 % of control | [7] 98 % of control | [8] 98 % of control | [9] 98 % of control | dose: 100.0 mg/kg/injection, schedule: Q01DX009 (ip), vehicle: olive oil, sesame oil, peanut oil 100 % of control

Cc1ccccc1-c1nc2c([nH]1)c(=O)n(C)c(=O)n2C
inactive: dose: 12.5 mg/kg/injection, schedule: Q01DX005 (ip), vehicle: distilled water + Tween-80 87 % of control | dose: 25.0 mg/kg/injection, schedule: Q01DX005 (ip), vehicle: distilled water + Tween-80 92 % of control and 94 % of control | dose: 50.0 mg/kg/injection, schedule: Q01DX005 (ip), vehicle: distilled water + Tween-80 93 % of control and 95 % of control | dose: 100.0 mg/kg/injection, schedule: Q01DX005 (ip), vehicle: distilled water + Tween-80 88 % of control | dose: 200.0 mg/kg/injection, schedule: Q01DX005 (ip), vehicle: distilled water + Tween-80 88 % of control and 93 % of control | dose: 400.0 mg/kg/injection, schedule: Q01DX005 (ip), vehicle: distilled water + Tween-80 90 % of control

CCC(C=O)Cc1ccccc1 (stereo not drawn)
inactive: [1] 95 % of control | [2] 94 % of control | [4] 88 % of control

CCCCc1ccc(N=Cc2ccc(C=Nc3ccc(CCCC)cc3)cc2)cc1
inactive: [1] 94 % of control | [2] 89 % of control | [4] 89 % of control

COC1=CCC(=Nc2ccccc2)C=C1
inactive: [5] 96 % of control | dose: 200.0 mg/kg/injection, schedule: Q01DX001 (ip), vehicle: saline with Tween-80 102 % of control | dose: 400.0 mg/kg/injection, schedule: Q01DX001 (ip), vehicle: saline with Tween-80 95 % of control

CC1C=COC(C)CO1 (stereo not drawn) (tested in a mixture with another compound)
inactive: [1] 103 % of control | [2] 97 % of control | [4] 95 % of control

Cc1ccc2c(ccc(/C=C/c3ccc(O)c4ncccc34)[n+]2C)c1
inactive: dose: 12.5 mg/kg/injection, schedule: Q01DX009 (ip), vehicle: saline with Tween-80 117 % of control | dose: 25.0 mg/kg/injection, schedule: Q01DX009 (ip), vehicle: saline with Tween-80 122 % of control | dose: 50.0 mg/kg/injection, schedule: Q01DX009 (ip), vehicle: saline with Tween-80 105 % of control | dose: 66.0 mg/kg/injection, schedule: Q04DX003 (ip), vehicle: saline with Tween-80 119 % of control | [1] 119 % of control | dose: 150.0 mg/kg/injection, schedule: Q04DX003 (ip), vehicle: saline with Tween-80 119 % of control
